Reference: patent publication US20250326726A1, “FERROPTOSIS INHIBITORS-PHENOXAZINE ACETAMIDES” (SIRONAX (BEIJING) CO., LTD., priority 2023, published 2025)

Test system: HT-1080 cells
Assay: RSL3-induced HT-1080 cells ferroptosis assay (10% FBS)
Assay type: cell-based

Substance: 5-(dimethylamino)-N-((8-(trifluoromethyl)-10H-phenoxazin-3-yl)methyl)pentanamide [Compound 57]
- Bioactivity (RSL3-induced HT-1080 cells ferroptosis assay (10% FBS)): 1 to 100 nM
